Reference: patent publication US7074447B2 (Laboratories Miret, S.A., priority 2001, dated 2006)

Legend:
Assay in all cases: minimum inhibition concentration and Kull synergy index of LAE / potassium sorbate
Format in all cases: cell-based
[1] = test system: Bacillus megaterium (CECT 44); conditions: pH 7.4, aqueous solutions
Procedure: (§1) The invention is now explained by a number of examples. In these examples LAE and sorbate alone and in a number of different combinations have been investigated against a number of bacterial preparations. For the analysis usually an internal method was used. Conditions and medium were Mueller Hinton broth (pH 7.4) or (pH 5.0) for bacteria, Sabouraud broth (pH 5.8) for yeast and Sabouraud medium for moulds. The interaction of the two components of the antimicrobial mixture is calculated according to the method described by Kull et al. (Kull […]. and Mayer R. L., Applied Microbiology, 1961; 6:538-541). According to this method the so-called synergy index is calculated according to the following formula: Synergy index […]. […] Again the effects of the components alone and in combination have been calculated using the same method as described at Example 1.

[2] = test system: Staphylococcus aureus (ATCC 6538); conditions: for SI, synergy index: <1 synergism, 1 addition, >1 antagonism
Procedure: as §1

[3] = test system: Candida albicans (ATCC 10231); conditions: for SI, synergy index: <1 synergism, 1 addition, >1 antagonism
Procedure: The invention is now explained by a number of examples. In these examples LAE and sorbate alone and in a number of different combinations have been investigated against a number of bacterial preparations. For the analysis usually an internal method was used. […] The interaction of the two components of the antimicrobial mixture is calculated according to the method described by Kull et al. (Kull […]. and Mayer R. L., Applied Microbiology, 1961; 6:538-541). According to this method the so-called synergy index is calculated according to the following formula: Synergy index […]. […] The same method was used as described for example 1. […] Again the effects of the components alone and in combination have been calculated using the same method as described at Example 1.

CCCCCCCCCCCC(=O)N[C@@H](CCCNC(=N)N)C(=O)OCC.Cl [LAE, L-arginine, N^α-lauroyl-ethylester monohydrochloride]
QLAE, minimum inhibition concentration of LAE as single antimicrobial [1]: 6.4 | Qlae, minimum inhibition concentration of LAE in the mixture [1]: 6.4 | Qlae/QLAE [1]: 1 | Qs, minimum inhibition concentration of potassium sorbate in the mixture [1]: 0 | Qs/QS [1]: 0.00 | SI, synergy index ([1]; <1 synergism, 1 addition, >1 antagonism): 1.00 | QLAE, minimum inhibition concentration of LAE as single antimicrobial ([2]; pH 5.0): 29.3 | Qlae, minimum inhibition concentration of LAE in the mixture ([2]; pH 5.0): 29.3 | Qlae/QLAE ([2]; pH 5.0): 1.00 | Qs, minimum inhibition concentration of potassium sorbate in the mixture ([2]; pH 5.0): 0 | Qs/QS ([2]; pH 5.0): 0.00 | SI, synergy index ([2]; pH 5.0): 1.00 | QLAE, minimum inhibition concentration of LAE as single antimicrobial ([2]; pH 7.4, aqueous solutions): 3.2 | Qlae, minimum inhibition concentration of LAE in the mixture ([2]; pH 7.4, aqueous solutions): 3.2 | Qlae/QLAE ([2]; pH 7.4, aqueous solutions): 1.0 | Qs, minimum inhibition concentration of potassium sorbate in the mixture ([2]; pH 7.4, aqueous solutions): 0 | Qs/QS ([2]; pH 7.4, aqueous solutions): 0.00 | SI, synergy index ([2]; pH 7.4, aqueous solutions): 1.00 | QLAE, minimum inhibition concentration of LAE as single antimicrobial ([3]; pH 5.0): 29.3 | Qlae, minimum inhibition concentration of LAE in the mixture ([3]; pH 5.0): 29.3 | Qlae/QLAE ([3]; pH 5.0): 1.00 | Qs, minimum inhibition concentration of potassium sorbate in the mixture ([3]; pH 5.0): 0 | Qs/QS ([3]; pH 5.0): 0.00 | SI, synergy index ([3]; pH 5.0): 1.00 | QLAE, minimum inhibition concentration of LAE as single antimicrobial ([3]; pH 7.4, aqueous solutions): 25.60 | Qlae, minimum inhibition concentration of LAE in the mixture ([3]; pH 7.4, aqueous solutions): 25.60 | Qlae/QLAE ([3]; pH 7.4, aqueous solutions): 1.00 | Qs, minimum inhibition concentration of potassium sorbate in the mixture ([3]; pH 7.4, aqueous solutions): 0.00 | Qs/QS ([3]; pH 7.4, aqueous solutions): 0.00 | SI, synergy index ([3]; pH 7.4, aqueous solutions): 1.00
